Activity calls are given as the source filed them. No cut-off for these calls is given here.
Tests used:
Pseudomonas aeruginosa [1] = assay: Antibacterial activity against Pseudomonas aeruginosa ATCC 27853 infected in female KM mouse assessed as epithelial tissue proliferation in skin at 40 mg/kg, iv measured after 3 days; format: functional, organism-based; settings: time 3.0 day
Pseudomonas aeruginosa [2] = assay: Antibacterial activity against Pseudomonas aeruginosa ATCC 27853 infected in female KM mouse assessed as increase in wound contraction in skin at 40 mg/kg, iv measured after 3 days; format: functional, organism-based; settings: time 3.0 day
Pseudomonas aeruginosa [3] = assay: Antibacterial activity against Pseudomonas aeruginosa ATCC 27853 infected in female KM mouse assessed as wound healing rate in skin at 40 mg/kg, iv measured after 3 days (reference value: 36.2 %); format: functional; settings: time 3 day
[4] = Binding affinity to CM5 chip-immobilized recombinant N-terminal His-tagged Escherichia coli BL21 NagZ extracted from Escherichia coli BL21 assessed as equilibrium dissociation constant by SPR analysis
Pseudomonas aeruginosa [5] = assay: Synergistic antibacterial activity against Pseudomonas aeruginosa ATCC 27853 infected in female KM mouse assessed as wound healing rate in skin at 200 ug/ml applied topically measured after 3 days in presence of ceftazidime (reference value: 36.2 %); format: functional; settings: dose 200 µg/ml; route top; time 3 day
Pseudomonas aeruginosa [6] = assay: Synergistic antibacterial activity against Pseudomonas aeruginosa ATCC 27853 infected in female KM mouse assessed as exudate formation on wound surface at 200 ug/ml applied topically in presence of imipenem measured after 3 days; format: functional, organism-based; settings: dose 200.0 µg/ml, route top, time 3.0 day
Pseudomonas aeruginosa [7] = assay: Synergistic antibacterial activity against Pseudomonas aeruginosa ATCC 27853 assessed as fractional inhibitory concentration index incubated for 18 hrs in presence of imipenem by two-dimensional microdilution checkerboard assay; format: functional
Escherichia coli [8] = assay: Inhibition of recombinant N-terminal His-tagged Escherichia coli BL21 NagZ extracted from Escherichia coli BL21 using pNP-GlcNAc as substrate at 100 uM by absorbance based assay relative to control
Escherichia coli [9] = assay: Binding affinity to CM5 chip-immobilized recombinant N-terminal His-tagged Escherichia coli BL21 NagZ extracted from Escherichia coli BL21 assessed as relative response by SPR analysis
Pseudomonas aeruginosa [10] = assay: Synergistic antibacterial activity against Pseudomonas aeruginosa ATCC 27853 assessed as fold reduction in ceftazidime MIC incubated for 18 hrs by two-dimensional microdilution checkerboard assay; format: functional
Pseudomonas aeruginosa [11] = assay: Synergistic antibacterial activity against Pseudomonas aeruginosa ATCC 27853 assessed as fold reduction in imipenem MIC incubated for 18 hrs by two-dimensional microdilution checkerboard assay; format: functional
Pseudomonas aeruginosa [12] = assay: Synergistic antibacterial activity against Pseudomonas aeruginosa ATCC 27853 infected in female KM mouse assessed as increase in wound contraction in skin at 200 ug/ml applied topically measured after 3 days in presence of ceftazidime; format: functional, organism-based; settings: dose 200.0 µg/ml, route top, time 3.0 day
Pseudomonas aeruginosa [13] = assay: Synergistic antibacterial activity against Pseudomonas aeruginosa ATCC 27853 infected in female KM mouse assessed as epithelial tissue proliferation in skin at 200 ug/ml applied topically in presence of imipenem measured after 3 days; format: functional, organism-based; settings: dose 200.0 µg/ml, route top, time 3.0 day
[14] = Inhibition of recombinant N-terminal His-tagged Escherichia coli BL21 NagZ extracted from Escherichia coli BL21 using different concentrations of substrate pNP-GlcNAc by 4-nitrophenolate ion release based spectrophotometric analysis
Pseudomonas aeruginosa [15] = assay: Synergistic antibacterial activity against Pseudomonas aeruginosa ATCC 27853 infected in female KM mouse assessed as wound healing rate in skin at 200 ug/ml applied topically measured after 10 days in presence of ceftazidime relative to control; format: functional; settings: dose 200 µg/ml; route top; time 10 day
Pseudomonas aeruginosa [16] = assay: Synergistic antibacterial activity against Pseudomonas aeruginosa ATCC 27853 infected in female KM mouse assessed as wound healing rate in skin at 200 ug/ml applied topically measured after 3 days in presence of imipenem (reference value: 36.2 %); format: functional; settings: dose 200 µg/ml; route top; time 3 day
Pseudomonas aeruginosa [17] = assay: Synergistic antibacterial activity against Pseudomonas aeruginosa ATCC 27853 infected in female KM mouse assessed as wound healing rate in skin at 200 ug/ml applied topically measured after 10 days in presence of imipenem relative to control; format: functional; settings: dose 200 µg/ml; route top; time 10 day
[18] = Inhibition of recombinant N-terminal His-tagged Escherichia coli BL21 NagZ extracted from Escherichia coli BL21 using pNP-GlcNAc as substrate by absorbance based assay
Pseudomonas aeruginosa [19] = assay: Synergistic antibacterial activity against Pseudomonas aeruginosa ATCC 27853 assessed as fractional inhibitory concentration index incubated for 18 hrs in presence of ceftazidime by two-dimensional microdilution checkerboard assay; format: functional

Compound	Activity (Pseudomonas aeruginosa [1])	Activity (Pseudomonas aeruginosa [2])	Activity (Pseudomonas aeruginosa [3]) [%]	Kd [4] [µM]	Activity (Pseudomonas aeruginosa [5]) [%]	Activity (Pseudomonas aeruginosa [6])	fractional inhibitory concentration index (FICI) (Pseudomonas aeruginosa [7])	inhibition (Escherichia coli [8]) [%]	RU (Escherichia coli [9])	fold change (FC) (Pseudomonas aeruginosa [10])	fold change (FC) (Pseudomonas aeruginosa [11])	Activity (Pseudomonas aeruginosa [12])	Activity (Pseudomonas aeruginosa [13])	Ki [14] [µM]	Activity (Pseudomonas aeruginosa [15]) [%]	Activity (Pseudomonas aeruginosa [16]) [%]	Activity (Pseudomonas aeruginosa [17]) [%]	IC50 [18] [µM]	fractional inhibitory concentration index (FICI) (Pseudomonas aeruginosa [19])
CC(C)(O/N=C(\C(=O)N[C@@H]1C(=O)N2C(C(=O)[O-])=C(C[n+]3ccccc3)CS[C@H]12)c1csc(N)n1)C(=O)O [CEFTAZIDIME]	Active	Active; Activity Higher Than Imipenem	62.2																
O=C(/C=C/c1ccc(Cl)c(Cl)c1)N[C@@H](Cc1ccc(I)cc1)C(=O)O				42.8	73.2	Active	0.375	88	< 68	>4	>4	Active; Activity Higher Than Imipenem And Compound-Ceftazidime Combination	Active	3.3	95.7	69.4	93.9	6.4	0.375

Source: ChEMBL document CHEMBL6182902, “Design, synthesis, and discovery of cinnamoyl amide derivatives as potent NagZ inhibitors with antibacterial activity” (Eur J Med Chem, 2025)
